Data from US11426441B2, “Composition comprising protein phosphatase 1 inhibitory peptide for treating vascular diseases” (BethphaGen Inc., priority 2016, dated 2022).
No end group written: not given here.

Key:
cytosolic Ca^2+ level = assay: Intracellular Ca2+ measurement in RASMCs; type: cell-based, rat; conditions: 10% FBS, 3 μM peptide
Experimental: FIGS. 4a, 4b, 4c and 4d. (4a-4c) HCSMCs were pretreated with 3 μM ψPLB-SE and 15 μM MDL28170 for 1 hour, and then treated with 50 μM A23187 for 2 hours. (4a) Immunostaining was performed with antibodies against SERCA2a and SERCA2b (green). Nuclei were stained with Hoechst (blue). Representative merged images are shown. Scale bar, 50 μm. (4b) Western blot analysis was performed with cell extracts. Data are expressed as the means±SD (n=3-4; *, P<0.05). (4c) Baseline Ca^2+ concentration was measured by lonOptix calcium imaging system. (4d) RASMC were treated with ψPLB-SE or control peptide under the same conditions as described for FIG. 1B. The baseline Ca^2+ concentration was measured by lonOptix calcium imaging system (*, P<0.05).
The intracellular Ca^2+ level was measured in VSMCs by loading cells with 0.5 μM Fura2-AM (Molecular Probes, Eugene Oreg., USA), a Ca^2+-sensitive indicator, for 15 minutes at 37. The fluorescence was recorded using the lonOptix calcium imaging system. VSMCs were stimulated by the exposure to light emitted by a 75 W halogen lamp through either a 340 nm or 380 nm filter. The fluorescent emissions were detected between 480 nm and 520 nm by a photomultiplier tube after an initial illumination at 340 nm for 0.5 second and then at 380 nm during recording. […]

[1] = system: monocrotaline (MCT)-induced pulmonary arterial hypertension rats; assay: Monocrotaline-induced pulmonary arterial hypertension in rats; type: in vivo, rat
Experimental: Vascular smooth muscle cells (VSMCs) were homogenized in a minimal volume of 50 mM Tris-HCl, pH 7.4, supplemented with a broad-spectrum protease inhibitor cocktail (Calbiochem). The proteins were separated by SDS-PAGE and then transferred to polyvinylidene fluoride membranes (Schleicher & Schuell). After blocking with 5% (w/v) non-fat milk for 1 hour and washing with TBST, the membranes were incubated with antibodies against SERCA2a, SERCA2b (21st century biochemical), PCNA (abcam), GAPDH (Sigma-Aldrich), phospho-eNOS, eNOS, phospho-eIF2α, eIF2α (cell signaling), Vimentin, α-SMA, BMPR2 (Santa cruz), phospho-Akt, Akt (cell signaling), phospho-phospholamban (Merck), and Phospholamban (cell signaling). The membranes were then incubated with horseradish peroxidase-conjugated secondary antibodies (Jackson ImmunoResearch, West Grove, Pa., USA) and developed using a chemiluminescent substrate (Dogen). The blots were scanned and quantified using LAS software.
Eleven Sprague-Dawley rats (Damool science, Korea) weighing 250-300 g were administered with 60 mg/kg monocrotaline (MCT) (Sigma Aldrich) via intraperitoneal injection, and three animals of a control group were administered with 0.9% physiological saline. According to the dosing schedule, simultaneously with the administration of MCT, six animals for the […] were administered with ψPLB-SE peptide diluted in 300 μl via respiratory inhalation four times at intervals of one week. Five animals for the control group were administered with control peptide. The rats were sacrificed one week after the administration with last peptide, and then histological analysis and molecular biological experiments were conducted.
In order to indirectly measure the pulmonary artery pressure, right heart catheterization was conducted on the basis of a procedure reported in Nature Protocols in 2008. Rats were anesthetized, followed by tracheal intubation. The rats were placed on a homeothermic plate (AD Instruments, Spechbach, Germany) for the maintenance of body temperature during heart catheterization, and then kept breathing using an artificial respiratory device only for an animal (MiniVent type 845, Hugo Sachs Elektronik, March-Hugstetten, Germany). The chest of the rats was opened, and then high-fidelity 1.4 F micromanometer/Mikro-Tip Pressure catheter (Millar Instruments, Houston, Tex.) was allowed to infiltrate the tricuspid site, to measure the right ventricular end-systolic pressure, right ventricular end-diastolic pressure, left ventricular end-systolic pressure, and left ventricular end-diastolic pressure (RVESP, RVEDP, LVESP, LVEDP). Related values and data were collected and analyzed using the PowerLab data acquisition system (MPVS-Ultra Single Segment Foundation System, AD Instruments) and LabChart 7 for Windows software.
Pulmonary tissues were taken from animal models, fixed with 4% (w/v) paraformaldehyde for 5 days at room temperature, and then washed with PBS. After embedding the specimens in paraffin and sectioning the tissue blocks into a thickness of 7 μm, the sections were stained with haematoxylin and eosin (Sigma Aldrich) to investigate the vascular thickness and inflammation, and the sections were stained with Masson-trichrome (Sigma Aldrich) to investigate the extent of perivascular fibrosis, and then observed through an optical microscope.
The pulmonary tissues were obtained from rats and mice, and the cytokine levels in the tissues were quantitatively analyzed using human proinflammatory 10plex Meso Scale Diagnostics plates (MSD; Rockville, Md.).

[2] = system: pulmonary arterial smooth muscle cells (PASMCs); assay: PASMC proliferation (PCNA western blotting, cell proliferation assay); type: cell-based; conditions: synthetic phenotype induction
Experimental: FIGS. 19a and 19b. […] (19a) Protein expression was quantitatively analyzed through western blotting using antibodies against PCNA and GAPDH 12 and 24 hours after the treatment. (19b) Cell proliferation assay was performed using EZ-CyTox cell viability assay kit.
The rat aortic smooth muscle cells (RASMCs) were isolated from the medial layer of the thoracic aorta derived from male Sprague-Dawley rats (body weight, 180-200 g) by an enzymatic reaction with collagenase (50 U/mL, Worthington) and pancreatic elastase (0.25 mg/mL, Sigma-Aldrich) for 4 hours at 37. The cells were collected and resuspended in DMEM containing 20% (v/v) fetal bovine serum. The resuspension was then plated on collagen I (Sigma-Aldrich)-coated glass coverslips and incubated at 37 in an atmosphere of 5% (v/v) CO2 and 95% (v/v) air. Human coronary smooth muscle cells (HCSMCs), pulmonary arterial endothelial cells (PAECs), and pulmonary arterial smooth muscle cells (PASMCs) were purchased from Lonza and cultured in EBM or SmBM (Lonza) supplemented with 0.5 mg/mL hEGF, […], 1 mg/mL hFGF, […] gentamicin/amphotericin-B, and 5% fetal bovine serum. […]
Vascular smooth muscle cells (VSMCs) were homogenized in a minimal volume of 50 mM Tris-HCl, pH 7.4, supplemented with a broad-spectrum protease inhibitor cocktail (Calbiochem). […] The blots were scanned and quantified using LAS software.

**Q.** Which “cytosolic Ca^2+ level elevated under synthetic conditions” value (cytosolic Ca^2+ level) does the source give for “RAETIEMPQ (not fully specified) [ψPLB-SE, 9-mer PP1 decoy peptide mimicking phosphorylated PLB; conjugated via GGG linker to cell penetrating peptide dNP2 or TAT]” here?
**A.** Its value is “decreased”.

**Q.** And the “right ventricular end-systolic pressure” value ([1]; MCT 60 mg/kg rats, peptide via respiratory inhalation once a week for 4 weeks, MCT 67.4±6.4, sham 33.7±1.7)?
**A.** The value was 33.5±5.8.

**Q.** And the “expression degree of BMPR2” value ([1]; rat pulmonary tissue)?
**A.** The value was “restored”.

**Q.** What about the “fibrosis extent of vascular adventitia (Masson-trichrome staining)” value ([1]; rat pulmonary tissue) of the same sequence?
**A.** Its value is “reduced”.

**Q.** And the “increase in vascular thickening (hematoxylin and eosin staining)” value ([1]; rat pulmonary tissue)?
**A.** The value was “attenuated”.

**Q.** And the “phosphorylation level of eIF2α” value ([1]; rat pulmonary tissue)?
**A.** Its value is “restored”.

**Q.** And the “proinflammatory cytokines (GM-CSF, TNF-α, IL-17, IL-1β, IL-6, TGF-β) levels” value ([1]; rat pulmonary tissue)?
**A.** Its value is “restored to nearly to the normal levels”.

**Q.** What about the “eNOS phosphorylation level (eNOS activity)” value ([1]; rat pulmonary tissue proteins) of the same sequence?
**A.** Its value is “increased”.

**Q.** What about the “increases in the expression of vimentin and α-SMA” value ([1]; rat pulmonary tissue, protein quantitative analysis) of the same sequence?
**A.** The value was “attenuated”.

**Q.** What about the “cell proliferation (cell proliferation assay)” value [2] of the same sequence?
**A.** Its value is “inhibiting cell proliferation”.

**Q.** What about the “expression of PCNA” value [2] of the same sequence?
**A.** Its value is “attenuated”.
